In the test the target is Serine/threonine-protein kinase pim-1 (Homo sapiens, UniProt P11309).
Chain of Serine/threonine-protein kinase pim-1 (P11309 whole entry): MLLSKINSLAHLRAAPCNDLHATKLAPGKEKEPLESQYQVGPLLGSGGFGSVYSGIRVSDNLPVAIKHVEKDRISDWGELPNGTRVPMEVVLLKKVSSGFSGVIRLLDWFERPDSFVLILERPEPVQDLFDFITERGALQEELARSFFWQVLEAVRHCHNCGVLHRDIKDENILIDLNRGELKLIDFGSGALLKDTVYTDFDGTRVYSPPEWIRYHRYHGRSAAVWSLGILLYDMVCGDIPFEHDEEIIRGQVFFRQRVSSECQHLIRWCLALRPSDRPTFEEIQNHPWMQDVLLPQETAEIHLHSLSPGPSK
In the case of `CN1CCOc2c1c(N1CCC3(CCCNC3)CC1)nn1c(-c3ccnc(C(F)(F)F)c3)cnc21` [US20240199630, Compound T4.6], half-maximal inhibition (IC50) required 8.3 nM.
The same measure for `CNCC1CCN(c2nn3c(-c4ccnc(C(F)(F)F)c4)cnc3c3c2N(C)CCO3)CC1` [US20240199630, Compound T4.2]: 5.5 nM; for `CN1CCOc2c1c(N1CCC3(CC1)CC(N)C3)nn1c(-c3ccnc(C(F)(F)F)c3)cnc21` [US20240199630, Compound T4.9]: 0.8 nM; for `CN(CC1CCNCC1)c1nn2c(-c3ccnc(C(F)(F)F)c3)cnc2c2c1N(C)CCO2` [US20240199630, Compound T4.1]: 0.9 nM.
On to `CN1CCOc2c1c(N1CCCC3(CCNCC3)C1)nn1c(-c3ccnc(C(F)(F)F)c3)cnc21` [US20240199630, Compound T4.7], for which the IC50 (in general, the concentration at which inhibition is half-maximal) stood at 1.1 nM.
The compound `CN1CCOc2c1c(NC1CC3(CCNCC3)C1)nn1c(-c3ccnc(C(F)(F)F)c3)cnc21` [US20240199630, Compound T4.8] had an IC50 of 2 nM. Against the preceding compound, the IC50 is about 1.8-fold higher.

For the origin of these results see BindingDB's records for patent US20240199630 (CNIO, 2024).
